Measured values as given in patent US20050256188A1, “Formulations of anthraquinone derivatives” (priority 2002, published 2005).
Where a SMILES comes first, the peptide text is derived from it.

experiment: Degradation of AQ4N dihydrochloride in solution at 40° C.: accumulation of AQMN (HPLC); assay type: physicochemical; conditions: 20 mM sodium acetate buffer, pH 4.5, 5 mg/ml solution, 14 days, % w.r.t. AQ4N
Description: The degradation of AQ4N was investigated using 5 mg/ml solutions of AQ4N at a pH of 2.4, 4.5 and 6.8, which equated to water, 20 mM sodium acetate buffer and 20 mM sodium orthophosphate buffer, respectively. The primary degradation pathway of AQ4N is its conversion to AQMN. The increase in AQMN concentration in 5 mg/ml solutions incubated at 40° C. over an intermediate time period (14 days) is shown in FIG. 3.
The effect of pH on the stability of AQ4N was determined by investigating AQ4N degradation in different solutions. The solutions chosen were again distilled water, 20 mM sodium acetate buffer (pH=4) and 20 mM sodium phosphate buffer (pH=7). After preparation of the 5 mg/ml AQ4N buffered solutions the pH was corrected to the required pH of the buffer. The final pHs were 2.4, 4.5 and 6.8 for the distilled water, 20 mM sodium acetate buffer and 20 mM sodium phosphate buffer, respectively. The samples were incubated at 40° C. and sampled at regular intervals. Assay was carried out by sample dilution followed by HPLC analysis.

Molecule | AQMN increase per day
C[N+](C)([O-])CCNc1ccc(NCC[N+](C)(C)[O-])c2c1C(=O)c1c(O)ccc(O)c1C2=O.Cl.Cl [AQ4N dihydrochloride] | 0.19%

same assay, conditions: 20 mM sodium orthophosphate buffer (PO4), pH 6.8, 5 mg/ml solution, 14 days, % w.r.t. AQ4N

Molecule | AQMN increase per day
C[N+](C)([O-])CCNc1ccc(NCC[N+](C)(C)[O-])c2c1C(=O)c1c(O)ccc(O)c1C2=O.Cl.Cl [AQ4N dihydrochloride] | 0.02%

same assay, conditions: H2O, pH 2.4, 5 mg/ml solution, 14 days, % w.r.t. AQ4N

Molecule | AQMN increase per day
C[N+](C)([O-])CCNc1ccc(NCC[N+](C)(C)[O-])c2c1C(=O)c1c(O)ccc(O)c1C2=O.Cl.Cl [AQ4N dihydrochloride] | 0.84%

same assay, conditions: phosphate buffer, 5 mg/ml solution, 63 days

Molecule | AQMN increase per month
C[N+](C)([O-])CCNc1ccc(NCC[N+](C)(C)[O-])c2c1C(=O)c1c(O)ccc(O)c1C2=O.Cl.Cl [AQ4N dihydrochloride] | 0.6%

experiment: pH of AQ4N salts in aqueous solution; assay type: physicochemical; conditions: 1.4 mM in water; in Table 4 the label is the acid whose AQ4N disalt was measured
Description: Stock solutions of individual AQ4N salts were prepared by transferring about 1 mg, accurately weighed, and diluting with water to obtain solutions of 1.4 mM. The solution was vortexed for 3 min using a Fisons WhirlMixer™ (Loughborough, Leicestershire, UK). All AQ4N salt solutions were prepared on the same day as determination of the pH value of the solutions, which was done using a digital pH meter (calibrated at 21±1° C. with standard buffers of pH 7.00 and 4.00 from BDH (UK).

Molecule | measured pH of AQ4N di-salt solutions (1.4 mM)
O=C(O)C(Cl)Cl [Dichloroacetic, dichloroacetic acid] | 2.4
O=C(O)C(O)C(O)C(=O)O (centres unmarked) [Tartaric, tartaric acid] | 2.8
AQ4N di-benzenesulfonate [Example 6] | 2.4
AQ4N di-dichloroacetate [Example 7] | 2.5
O=C(O)CC(O)(CC(=O)O)C(=O)O [Citric, citric acid] | 3.3
CC(=O)O [Acetic, acetic acid] | 3.8
O=C(O)/C=C\C(=O)O [Maleic, maleic acid] | 2.6
AQ4N di-acetate [Example 14] | 3.8
CC(O)C(=O)O (racemic) [Lactic, Lactic acid] | 3.5
O=S(=O)(O)c1ccccc1 [Benzenesulfonic, benzenesulfonic acid] | 2.5
Cl [Hydrochloric, hydrochloric acid] | 2.4
O=C(O)CCCCCC(=O)O [Pimelic, pimelic acid] | 3.8
AQ4N di-pimelate [Example 13] | 3.8
O=C(O)CC(=O)O [Malonic, malonic acid] | 2.8
C[N+](C)([O-])CCNc1ccc(NCC[N+](C)(C)[O-])c2c1C(=O)c1c(O)ccc(O)c1C2=O.Cl.Cl [AQ4N dihydrochloride] | 2.4

experiment: not given; conditions: Table 1, pKa1; cited from earlier work

Molecule | pKa at 25° C. (pKa1)
COc1cc2c(cc1OC)[C@@]13CCN4CC5=CCO[C@H]6CC(=O)N2[C@H]1[C@H]6[C@H]5C[C@H]43.O.O.O.O [Brucine tetrahydrate] | 2.30 (pKa1)
O=C(O)c1cc(C(=O)O)cc(C(=O)O)c1 [Benzene-1,3,5-tricarboxylic (trimesic)] | 3.16 (pKa1)
C=C(CC(=O)O)C(=O)O [Itaconic] | 3.84 (pKa1)
O=C(O)c1cccc(C(=O)O)c1C(=O)O [Benzene-1,2,3-tricarboxylic (hemimellitic)] | 2.98 (pKa1)
O=C(O)c1cc(C(=O)O)c(C(=O)O)c(C(=O)O)c1C(=O)O [Benzenepentacarboxylic] | 2.34 (pKa1)
O=C(O)CC(O)C(=O)O (centres unmarked) [Malic] | 3.40 (pKa1)
CC(CC(=O)O)(CC(=O)O)C(=O)O [2-Methylpropane-1,2,3-triscarboxylic] | 3.53 (pKa1)

same assay, conditions: Table 1, pKa2; cited from earlier work

Molecule | pKa at 25° C. (pKa2)
O=C(O)CC(O)C(=O)O (centres unmarked) [Malic] | 5.05 (pKa2)

same assay, conditions: Table 1, pKa index not given; cited from earlier work

Molecule | pKa at 25° C.
O=C1CC(=O)NC(=O)N1 [Barbituric] | 3.98
NCC(=O)NCC(=O)O [Glycylglycine] (H-Gly-Gly-OH) | 3.06
OCCN(CCO)C(CO)(CO)CO [Bis(2-hydroxyethyl)iminotris(hydroxymethyl)methane] | 6.46
O=C(O)c1ccccc1C(=O)O [Phthalic] | 2.90
O=C(O)CCCCCC(=O)O [Pimelic, pimelic acid] | 4.48
C/C=C/C=C/C(=O)O [Sorbic] | 4.76

same assay, conditions: value of the free acid; from IUPAC Handbook of Pharmaceutical Salts; cited from earlier work

Molecule | pKa1 of acid used to prepare AQ4N disalt
O=S(=O)(O)c1ccccc1 [Benzenesulfonic, benzenesulfonic acid] | −2.5
O=C(O)CCCCCC(=O)O [Pimelic, pimelic acid] | 4.48
